Publication PMC8881069, “Thio- and selenosemicarbazones as antiprotozoal agents against Trypanosoma cruzi and Trichomonas vaginalis” (Journal of Enzyme Inhibition and Medicinal Chemistry, 2022)

Legend:
[1] = tested on: Trypanosoma cruzi CL-B5 (DTU TcVI) epimastigotes; experiment: CL-B5 lacZ epimastigote susceptibility assay (CPRG); format: cell-based; settings: T. cruzi CL-B5 lacZ epimastigotes, 72 h, mean ± SD, n = 3
L929 cells = experiment: Unspecific cytotoxicity assay on L929 fibroblasts (resazurin); format: cell-based; settings: mean ± SD, n = 3; for CC50 at 72 h: mouse
[2] = tested on: Trypanosoma cruzi Y (DTU TcII) epimastigotes; experiment: Y strain epimastigote susceptibility assay (resazurin); format: cell-based; settings: T. cruzi Y strain epimastigotes, 48 h, mean ± SD, n = 3
J774 cells = experiment: Unspecific cytotoxicity assay on J774 macrophages (resazurin); format: cell-based, mouse; settings: mean ± SD, n = 3; for CC50 at 48 h: mouse
[3] = tested on: Trypanosoma cruzi CL-B5 amastigotes; experiment: CL-B5 lacZ intracellular amastigote susceptibility assay (CPRG); format: cell-based; settings: intracellular amastigotes in L929 cells, 7 days, mean ± SD, n = 3
[4] = tested on: hydrogenosome membrane potential of T. vaginalis; experiment: Hydrogenosomal membrane potential assay (JC-1); settings: Figure 3; 4 h; 51 and 63 at 100 µM, MTZ 24 µM, CCCP 50 µM
Trichomonas vaginalis = experiment: Trichomonacidal in vitro assay (resazurin); format: cell-based; settings: isolate JH31A#4, 24 h, brackets: 95% confidence interval
Vero cells = experiment: Unspecific cytotoxicity assay in Vero cells (resazurin); format: cell-based, African green monkey; settings: Vero cells, 24 h, brackets: 95% confidence interval; for CC50 at 24 h: African green monkey, Vero CCL-81 cells (kidney epithelial cells)

| Compound | IC50 ([1]; Trypanosoma cruzi) [µM] | CC50 at 72 h (L929 cells) [µM] | IC50 (Trichomonas vaginalis; Trichomonas vaginalis, 24 h) [µM] | further results |
| --- | --- | --- | --- | --- |
| O=C(Cn1ccnc1[N+](=O)[O-])NCc1ccccc1 [Benznidazole, benznidazole, reference compound] | 25.3 ± 1.63 | > 256 |  | IC50 ([2]; Trypanosoma cruzi): 22.7 ± 1.82 µM; CC50 at 48 h (J774 cells): > 256 µM; IC50 ([3]; Trypanosoma cruzi, 168 h): 0.47 ± 0.09 µM |
| N#CC(C#N)=NNc1cccc(Cl)c1 [CCCP, m-chlorocarbonylcyanide phenylhydrazone, reference compound] |  |  |  | JC-1 fluorescence distribution in trophozoites (fluorescence microscopy) [4]: provokes a disturbance in the hydrogenosome membrane potential |
| COc1ccc(NC(=S)NN)cc1 [Compound 23] | 53.5 ± 13 | > 256 | 256 | IC50 ([2]; Trypanosoma cruzi): 59.9 ± 10.4 µM; CC50 at 48 h (J774 cells): > 256 µM |
| NNC(=S)Nc1ccc(F)cc1 [Compound 24] | 58.8 ± 8.77 | > 256 | 200 | IC50 ([2]; Trypanosoma cruzi): 97.3 ± 3.45 µM; CC50 at 48 h (J774 cells): > 256 µM |
| NNC(=S)Nc1ccc(Cl)cc1 [Compound 25] | 44.2 ± 13.6 | 67.7 ± 3.16 | 49.2 | CC50 at 24 h (Vero cells): > 300 µM |
| NNC(=S)Nc1ccc(I)cc1 [Compound 27] | 49.8 ± 14.2 | 51 ± 8.88 | 75.7 |  |
| NNC(=S)Nc1ccccc1[N+](=O)[O-] [Compound 28] | 44.1 ± 5.38 | 210 ± 15.3 | > 300 |  |
| NNC(=S)Nc1cccc([N+](=O)[O-])c1 [Compound 29] | 79.9 ± 15.4 | 206 ± 7.25 | 19.1 | CC50 at 24 h (Vero cells): > 300 µM |
| NNC(=S)Nc1ccc([N+](=O)[O-])cc1 [Compound 30] | 72.5 ± 1.23 | 23.6 ± 2.84 | 106 |  |
| NNC(=S)Nc1cccc2ccccc12 [Compound 31] |  |  |  | IC50 [1]: 28.7 ± 4.61 µM; CC50 (L929 cells; 72 h): > 256 µM; IC50 [2]: 33.6 ± 5.72 µM; CC50 (J774 cells; 48 h): > 256 µM; IC50 [3]: 39.7 ± 9.91 µM; IC50 (Trichomonas vaginalis): 30.2 µM; CC50 (Vero cells): > 300 µM |
| Oc1ccc(/C=N/NC(=S)Nc2ccccc2)cc1 [Compound 36] | 70.9 ± 11 | 46.29 ± 0.15 | 74 |  |
| COc1ccc(/C=N/NC(=S)Nc2ccccc2)cc1 [Compound 37] |  | > 256 | 167 | IC50 ([2]; Trypanosoma cruzi): 85.1 ± 17.2 µM; CC50 at 48 h (J774 cells): > 256 µM |
| Oc1ccc(/C=N/NC(=S)Nc2ccccc2)cc1O [Compound 38] | 15.3 ± 2.22 | 45.2 ± 0.58 | 88.6 |  |
| Cc1ccc(NC(=S)N/N=C/c2ccc(O)cc2)cc1 [Compound 39] | 39.6 ± 7.08 | 61 ± 3.72 | 66.1 |  |
| COc1ccc(/C=N/NC(=S)Nc2ccc(C)cc2)cc1 [Compound 40] | > 256 | > 256 | 226 |  |
| Cc1ccc(NC(=S)N/N=C/c2ccc(O)c(O)c2)cc1 [Compound 41] | 119 ± 7.68 | 20 ± 1.87 | 80.6 |  |
| COc1ccc(NC(=S)N/N=C/c2ccc(O)cc2)cc1 [Compound 42] | 49.2 ± 9.97 | 43.3 ± 16.6 | 64.8 |  |
| COc1ccc(/C=N/NC(=S)Nc2ccc(OC)cc2)cc1 [Compound 43] | 26.8 ± 2.68 | > 256 | 258 | IC50 ([2]; Trypanosoma cruzi): 55.6 ± 16.3 µM; CC50 at 48 h (J774 cells): > 256 µM; IC50 ([3]; Trypanosoma cruzi, 168 h): 39 ± 14.3 µM |
| COc1ccc(/C=N/NC(=S)Nc2ccc(F)cc2)cc1 [Compound 44] | > 256 | > 256 | > 300 |  |
| Oc1ccc(/C=N/NC(=S)Nc2ccc(F)cc2)cc1O [Compound 45] | 97.4 ± 5.33 | 30.5 ± 3.93 | 226 |  |
| COc1ccc(/C=N/NC(=S)Nc2ccc(Cl)cc2)cc1 [Compound 46] | 30.5 ± 4.1 | 49.7 ± 3.76 | 32.3 | CC50 at 24 h (Vero cells): > 300 µM |
